Measured values published in US10188637B2, “Granulate formulation of 5-methyl-1-phenyl-2-(1H)-pyridone and method of making the same” (HOFFMANN-LA ROCHE INC., priority 2016, dated 2019).

Tests used:
[1] = Flow function coefficient (FFC) of powder blends mixed in a turbula mixer; type: physicochemical; conditions: powder blend
Experimental: Flow function coefficient (FFC) is a measure of powder flow. Values less than about 4 are considered poor and sub-optimal for powder processing. Values between 4-10 are considered acceptable flow values for powder processing. Flow behavior was analyzed for pure pirfenidone (without excipients) and a binary powder mixture of pirfenidone and microcrystalline cellulose mixed with either about 1% by weight silica or about 2% by weight silica, as shown in Table 3 below. The components were mixed in a turbula mixer and the different flow properties of the blends were measured.

[2] = after oral administration; cited from earlier work
[3] = test system: human mesenchymal-like cells (lung fibroblasts, skin fibroblasts, prostate stromal cells, renal mesangial cells); conditions: graded concentrations in cell culture media; cited from earlier work

## Cc1ccc(=O)n(-c2ccccc2)c1 [Pirfenidone, 5-methyl-1-phenyl-2-(1H)-pyridone]
[1]
  Flow Function Coefficient (Avg.): 2.3
  Flow Function Coefficient (Avg.), flow rating in words: (poor flow)
[2]
  Observed side effects: relatively mild (drowsiness, gastric nausea or photosensitivity rash)
  Serious adverse reactions: No serious adverse reactions have been reported
[3]
  Effective levels relative to levels exerting pharmacologically toxic effects on the cells: ten to twenty times lower
